# Laboratory results taken from patent US20230341376A1, “SYSTEM, METHOD, AND COMPUTER-ACCESSIBLE MEDIUM FOR PHENOTYPING OF SINGLE CELLS WITH MULTIPLEXED VIBRATIONAL PROBES” (The Trustees of Columbia University in the City of New York, priority 2020, published 2023).
# Tests used:
# Assay type in all cases: cell-based, human
# HeLa cells = assay: Endocytic pathway profiling by Rdots of various sizes and colors, whole-cell Raman
# Description: Upon exposure to mammalian cells, PS beads have been reported to enter cells through endocytosis, subsequently reaching the endosomal components. (See, e.g., Reference A40). Although some of the endocytic pathways have been well established, their exact biological roles are still under investigation. (See, e.g., References A41, A42). […] (See, e.g., Reference A43). Motivated by the independent size and color tunability of Rdots, cellular endocytosis pathways were profiled by incubating cells with Rdots of different sizes and colors. Rdots of 40 nm (Rdot2207), 70 nm (Rdot2118), and 120 nm (Rdot2092) in diameter were incubated with HeLa cells, and their Raman peaks are designed to be mutually resolvable.
# For whole-cell Raman acquisition, the corresponding Raman intensity is proportional to the number of internalized Rdots, since the Raman intensity of Rdots remains stable after exposed to cellular microenvironments. We therefore quantified the peak intensity to profile the differential mechanism of Rdots internalization. To this end, cells were first pre-treated with one of three inhibitors, chlorpromazine (CPZ), nystatin, and cytochalasin D (Cyto D). CPZ is a cationic amphiphilic drug used to block clathrin-mediated endocytosis. (See, e.g., Reference A44). Nystatin can decompose cholesterol and inhibit caveolae-mediated endocytosis. (See, e.g., Reference A45). Cyto D inhibits the polymerization of actin filaments, which is required for receptor-mediated endocytosis in mammalian cells. (See, e.g., Reference A46). Additionally, cells were incubated at 4° C. to inhibit energy-dependent endocytosis. Then endocytosis was examined by the quantification of internalized Rdots at the single-cell level. A distinctive response of Rdots internalization was detected when treated with various inhibitors (FIGS. 16E-G), and the radar plot was presented to highlight the fold change after inhibition (FIG. 16H). […] (See, e.g., Reference A47). […] (See, e.g., References A48, A49).
# FIGS. 16A-16M show exemplary illustration of an exemplary endocytic profiling assay by multi-color Rdots. […] The peak position of each Rdots was indicated by the arrow. Excitation: 532 nm (400 mW), acquisition time: 1 s. FIGS. 16B-16D show exemplary SRS images of cellular distribution for three endocytic Rdots, (B) 40 nm (C) 70 nm (D) 120 nm, scale bar: 10 µm. […] Excitation: 532 nm (400 mW), acquisition time: 1 s. FIGS. 16J-L show exemplary histogram showing the Raman intensity distribution of three endocytic Rdots uptake by HeLa, SKBR3, and COS-7 cells, FIG. 16J - 40 nm, FIG. 16K - 70 nm, and FIG. 16L - 120 nm.
# A375 cells = conditions: for metabolic heterogeneity of lipid synthesis activity (Cv of single-cell d-PA metabolites): compared to untreated control group; for d-AA metabolites (protein synthesis activity): compared to untreated group
# Description: Deuterated branch-chained amino acids and deuterated palmitic acid were supplemented to the cell culture media for 24 hours in order to probe the flux of protein and lipid synthesis. There can be several considerations for choosing these two types of probes. First, protein and lipids can be the major components of cell dry mass and their metabolism can be tightly regulated. Second, Raman spectra of the metabolites of these two deuterated probes in cells can be shifted to the cell silent region (e.g., 2000 — 2300 cm-1), which facilitated the detection with high sensitivity in a background-free manner. (See, e.g., FIG. 8). Third, compared to non-branch-chained counterparts, branch-chained amino acids were chosen for their narrower Raman spectra in order to have better spectral differences from that of deuterated palmitic acid. (See, e.g., Reference 23; and FIGS. 9). With the high-throughput instrumentation efforts described above, Raman spectra of these two types of probes can be acquired as quickly as 0.5 s for the entire cell with a satisfactory signal to noise ratio. (See, e.g., FIG. 1B).
# Previously, the single-cell metabolic measurement has been challenging. Previously-used methods, such as mass spectrometry, can be difficult to reveal single-cell level heterogeneity. (See, e.g., Reference 24). […] However, due to the complex nature of the Raman spectra, it can be difficult to assign each Raman peak in the fingerprint region to a specific chemical compound. (See, e.g., Reference 25). In addition, when dimension reduction approaches such as PCA can be applied, which can be a common practice for data analysis, the physical meanings of the dimension reduced data can be further lost. On the other hand, since the metabolic probes used have distinctive spectra, it can be straightforward to decompose the spectra in order to obtain the concentration information of each individual probe. Here the exemplary MCR-ALS method, (see, e.g., References 26-28), was used to decompose the composite spectra into the pure spectra of the two metabolic probes, and concentration profiles could thereby be obtained.
# To validate the ability to reveal metabolic activity, the exemplary MAP was applied to cultured cells treated with drugs that inhibit known metabolism. Five drugs were used as the reference: cycloheximide and blasticidin, both inhibit protein translation; Triacsin C can be an inhibitor of long fatty acyl CoA synthetase; etoposide and cisplatin can be DNA replication inhibitors. MAP probes and individual drugs were added to the seeded A375 cells and allowed to incubate for 24 hours, after which the cells were fixed and Raman spectra were taken from each individual of the fixed single cells. At least 3 batches of each drug were prepared to ensure model robustness and reproducibility. MCR-ALS on the Raman spectra taken with MAP were applied, from which the concentration profiles of d-AA metabolites and d-PA metabolites in every single cell were calculated. (See, e.g., FIG. 2A).
# Since MAP measures the metabolic activity in single cells, its potential in quantitatively characterizing single-cell metabolic heterogeneity was determined. The coefficients of variation (“Cv”) of the single-cell d-PA metabolites and d-AA metabolites distribution were calculated from the metabolic inhibitor-treated cells. (See, e.g., Reference 32). The Cv value can be a normalized measure of the dispersion of the single-cell metabolic activity distribution and thus it can be used as a parameter to quantify the metabolic heterogeneity. […] (See, e.g., FIG. 2C). […] (See, e.g., FIG. 2D).
# For MAP samples, cells were first seeded in a 24-well plate at 50% confluency with cell culture media and allowed to adhere overnight. Then the culture media was replaced with MAP culture media (see Table 1 below) and cells were further cultured in MAP media for 24 hours. […]
# SKBR3 cells = system: SKBR3 cells
# Description: Metabolic probes including ^13C-EdU, 17-ODYA, and ^13C-AA were first supplemented to cell culture media for 60 hours to report various metabolic activities. For endocytic profiling, cells were subsequently incubated with three Rdots for 6 hours. Then, seven functionalized Rdots cocktail was pooled to stain cell surface proteins simultaneously. Prior to the spectral acquisition, AltQ2 probe was added to live cells. Single-cell Raman spectra of SKBR3 cells were acquired with 1 second acquisition time (see FIG. 17C). To decipher the contribution of individual Raman probes, the amide region (1500 cm^-1-1700 cm-^1) and cell-silent region (2000 cm^-1 - 2300 cm-^1) were linearly decomposed by using the reference spectral profiles of each probe (see FIG. 17D) (See, e.g., References A54-A56). The unmixing procedure was applied on single-cell Raman spectra (see FIG. 17E). […] (See, e.g., References A25, A26).
# Cell-based profiling techniques are increasingly being used in drug discovery to monitor cell response upon drug treatment. (See, e.g., Reference A57). Optical techniques have unique advantages by allowing non-invasive, fast, and cost-effective readouts of individual living cells. (See, e.g., Reference A58). However, most high-content profiling assays have been primarily focusing on partial aspects of biological phenotypes. (See, e.g., Reference A59). Integration of different phenotypes will facilitate a more systematic understanding of the mechanism of drug candidates. (See, e.g., Reference A60). […] Trastuzumab is a HER2-targeted monoclonal antibody developed for clinical use in breast cancer patients. (See, e.g., Reference A61). Hydrogen peroxide (H2O2) is well known as a major member of reactive oxygen species (ROS). (See, e.g., Reference A62). Cycloheximide (CHX) exerts its action by inhibiting protein synthesis. (See, e.g., Reference A63). Cyto D causes the disruption of actin filaments and inhibition of actin polymerization. (See, e.g., Reference A64). Cisplatin is an inhibitor of DNA synthesis and cell growth. (See, e.g., Reference A65). After labeling with 14 Raman probes, single-cell Raman spectra of SKBR3 cells under treatment of five chemotherapy reagents, as well as untreated cells, were acquired through the automated whole-cell Raman micro-spectroscopy (see FIG. 18B).
# SKBR3 cells were seeded onto 18 mm round quartz coverslips (Electron Microscopy Sciences, 103302-258) and then maintained in a culture environment for 48 hours to reach 90% confluence. Then the culture medium was replaced with ^13C-AA DMEM containing 200 µM 17-ODYA and 50 nM ^13C-EdU for 60 hours. For the drug testing samples, cells were subject to the drug treatment simultaneously (see Table 5 for specific drug concentration). Followed by three rounds of gentle washing of DPBS buffer, cells were subsequently incubated with three-colored endocytic Rdots at 1 nM in serum-free DMEM medium. 6 hours later, cell surface markers were stained with seven-colored Rdots at a concentration of 10 nM for 1 hour on ice. After that, cells were washed extensively with DPBS buffer with 5 mM MgCl2 and 1% BSA. Then cells were rinsed with DPBS buffer with 5 mM MgCl2 and 40 µM AltQ2 before mounting onto the microscope for Raman measurement. Spectral unmixing was performed through the Least Square Method (LSM).
# [1] = drug 60 hours, normalized to control
compound,measurement,setting,value
C[C@@H]1[C@H](O)[C@@H](C)/C=C/C=C/CC/C=C/C=C/C=C/C=C/C(O[C@H]2O[C@H](C)[C@@H](O)[C@H](N)[C@@H]2O)CC2O[C@](O)(CC(O)C(O)CCC(O)CC(O)CC(O)CC(=O)O[C@H]1C)CC(O)C2C(=O)O (stereo partly drawn) [nystatin],internalization of 120 nm Rdots after inhibitor pre-treatment,HeLa cells; Rdot2092 (120 nm),inhibited
same,internalization of 70 nm Rdots after inhibitor pre-treatment,HeLa cells; Rdot2118 (70 nm),inhibited
same,internalization of 40 nm Rdots after inhibitor pre-treatment,HeLa cells; Rdot2207 (40 nm),unaltered or even slightly higher
same,"Rdots uptake (40 nm, 70 nm and 120 nm Rdots) after inhibitor pre-treatment",HeLa cells; single-cell Raman intensity of internalized Rdots,decreased as size increases
C[C@@H]1C[C@@H]([C@H](O)CC2CC(=O)NC(=O)C2)C(=O)[C@@H](C)C1 [cycloheximide],metabolic heterogeneity of lipid synthesis activity (Cv of single-cell d-PA metabolites),A375 cells; 24 hours drug,did not alter the lipid synthesis activity distribution
same,d-AA metabolites (protein synthesis activity),A375 cells; drug plus MAP probes 24 hours,significant decrease
same,internalization of AltQ2,SKBR3 cells; drug 60 hours,increased internalization
same,DNA synthesis (13C-EdU probe),SKBR3 cells; [1],interfere with the process other than protein synthesis such as DNA synthesis
COc1cc([C@@H]2c3cc4c(cc3[C@@H](O[C@@H]3O[C@@H]5CO[C@@H](C)O[C@H]5[C@H](O)[C@H]3O)[C@H]3COC(=O)[C@H]23)OCO4)cc(OC)c1O [etoposide],metabolic heterogeneity of lipid synthesis activity (Cv of single-cell d-PA metabolites),A375 cells; 24 hours drug,significantly decreased lipid synthesis heterogeneity
CN(CC[C@H](N)CC(=O)N[C@H]1C=C[C@H](n2ccc(N)nc2=O)O[C@@H]1C(=O)O)C(=N)N [blasticidin],metabolic heterogeneity of lipid synthesis activity (Cv of single-cell d-PA metabolites),A375 cells; 24 hours drug,did not alter the lipid synthesis activity distribution
same,d-AA metabolites (protein synthesis activity),A375 cells; drug plus MAP probes 24 hours,significant decrease
"C=C1[C@@H](C)[C@H]2[C@H](Cc3ccccc3)NC(=O)[C@]23[C@H](OC(C)=O)/C=C/[C@@](C)(O)C(=O)[C@@H](C)C/C=C/[C@H]3[C@@H]1O [Cyto D, cytochalasin D]","cellular uptake of Rdots, incubation with inhibitor for 60 hours",HeLa cells; 60 hours,markedly promoted
same,"Rdots internalization, short-term inhibitor incubation",HeLa cells; short-term incubation (6 hours per FIG. 16 legend),suppressed
same,CD44 surface expression (Rdot2079-CD44),SKBR3 cells; drug 60 hours,suppresses CD44 surface expression
same,internalization of AltQ2,SKBR3 cells; drug 60 hours,increased internalization
same,DNA synthesis (13C-EdU probe),SKBR3 cells; [1],inhibits
same,protein synthesis (13C-AA probe),SKBR3 cells; [1],inhibits
same,cellular internalization of Rdots,SKBR3 cells; long-term drug treatment,promote cellular internalization of Rdots
"CCC/C=C/C/C=C/C=C/C=N/NN=O [triacsin C, Triacsin C]",metabolic heterogeneity of protein synthesis activity (Cv of single-cell d-AA metabolites),"A375 cells; 24 hours drug, compared to control group",unaltered Cv value
same,metabolic heterogeneity of lipid synthesis activity (Cv of single-cell d-PA metabolites),A375 cells; 24 hours drug,did not change the metabolic heterogeneity
same,d-PA metabolites (lipid synthesis activity),"A375 cells; drug plus MAP probes 24 hours, compared to untreated cells",significant loss
same,d-AA metabolites (protein synthesis activity),A375 cells; drug plus MAP probes 24 hours,decrease in protein synthesis activity
"OO [H2O2, Hydrogen peroxide]",cellular internalization of Rdots of 70 nm,SKBR3 cells; drug 60 hours,promoted
same,cellular internalization of Rdots of 120 nm,SKBR3 cells; drug 60 hours,promoted
same,fatty acid turnover phenotype (17-ODYA probe),SKBR3 cells; drug 60 hours,retarding their turnover rate
same,internalization of AltQ2,SKBR3 cells; drug 60 hours,increased internalization
N.N.[Cl][Pt][Cl] [cisplatin],metabolic heterogeneity of lipid synthesis activity (Cv of single-cell d-PA metabolites),A375 cells; 24 hours drug,significantly decreased lipid synthesis heterogeneity
